Consider 14 molecules from PMC9858421 (Journal of Enzyme Inhibition and Medicinal Chemistry, 2023).

The test system of experiment [1] is VDAC1. Particulars: PLB, cited from earlier work.
Experiment [2] concerns the target T1, hVDAC1 (Homo sapiens, UniProt P21796). Kind of experiment: NanoDSF thermal shift. It counts as binding. The following applies: hVDAC1 in LDAO; compared to hVDAC1 alone at 0% or 5% DMSO.
Experiment [3] concerns the target T1, hVDAC1. Kind of experiment: MST binding check. The following applies: 100 nM hVDAC1, highest soluble ligand concentration.
In experiment [4] the target is T1, hVDAC1. The following applies: read-out: Published Kd; cited from earlier work.
Experiment [5] deals with T1, hVDAC1. As to the kind of experiment: MST dose-response experiment. It counts as binding.
The target in experiment [6] is rVDAC1. The following applies: cited from earlier work.
Where [7] appears, read: MST dose-response, 100 nM hVDAC1, 16 concentrations.

“Also recorded” adds a separate entry of the source. Read-outs that look alike come from different tables or passages of the source.

T1 sequence (P21796 whole entry): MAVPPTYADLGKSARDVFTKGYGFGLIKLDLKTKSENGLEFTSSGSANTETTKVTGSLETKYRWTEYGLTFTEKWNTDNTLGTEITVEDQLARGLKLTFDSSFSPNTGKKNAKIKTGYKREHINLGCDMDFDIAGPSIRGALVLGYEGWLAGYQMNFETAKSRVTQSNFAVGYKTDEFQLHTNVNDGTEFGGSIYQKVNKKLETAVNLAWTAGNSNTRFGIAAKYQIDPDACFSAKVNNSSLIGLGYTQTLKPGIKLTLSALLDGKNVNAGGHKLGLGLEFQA

With `C(=NC1CCCCC1)=NC1CCCCC1` [DCCD], the “Effect(s) on activity” value in experiment [1] (NMR, [14C] DCCD-labelled VDAC1) is given as “Reduces conductance Inhibits HK-VDAC1 binding”. For the same molecule, the “Tm shift in NanoDSF (direction / significance, in words)” value in experiment [2] is recorded as “increase the Tm”. The “MST Binding Check” value in experiment [3] is listed as “Positive”.
With `CNCCC(Oc1ccc(C(F)(F)F)cc1)c1ccccc1` (centres unmarked) [Fluoxetine], in experiment [1], the “Effect(s) on activity” value is reported as “Reduces conductance Prevents Cyto C release”.
What is called Kd is the concentration at which binding is half-saturated. `NC(=O)C1=CN([C@@H]2O[C@H](COP(=O)(O)OP(=O)(O)OC[C@H]3O[C@@H](n4cnc5c(N)ncnc54)[C@H](O)[C@@H]3O)[C@@H](O)[C@H]2O)C=CC1` [NADH]: the “Effect(s) on activity” value in experiment [1] (NMR) was “Affects gating without reducing the conductance Sterically closes the channel”. Also, the “Tm shift in NanoDSF (direction / significance, in words)” value in experiment [2] is on record as “not been confirmed as VDAC1 ligands”. For the same molecule, the “MST Binding Check” value in experiment [3] is “validated by binding check; also recorded: Positive”. Also, the Kd in experiment [4] was 9000 µM.
On to `O.Oc1cc(O)c2c(c1)O[C@H](c1ccc(O)c(O)c1)[C@@H](O)C2` [Catechin], for which the “Tm shift in NanoDSF (direction / significance, in words)” value in experiment [2] is recorded as “increase the Tm; also recorded: significant Tm shift”.
For `CCC(C)n1ncn(-c2ccc(N3CCN(c4ccc(OCC5COC(Cn6cncn6)(c6ccc(Cl)cc6Cl)O5)cc4)CC3)cc2)c1=O` (centres unmarked) [Itraconazole], the figures for the Kd in experiment [5] and in experiment [6] (read-out: Published Kd) were 5 ± 2 µM and 120 µM, respectively. The “MST Binding Check” value is reported as “Positive” in experiment [3] and “binding was shown” in experiment [3] (listed as itraconazole).
For the molecule `COc1cc(/C=C/C(=O)CC(=O)/C=C/c2ccc(O)c(OC)c2)ccc1O` [Curcumin], the Kd in experiment [5] was 6 ± 1 µM; in experiment [5] (setting [7]), below 10 µM. Moreover, in experiment [1], the “Effect(s) on activity” value is listed as “Reduces conductance by promoting closed state(s)”. Also, the “Tm shift in NanoDSF (direction / significance, in words)” value in experiment [2] is listed as “negative Tm shift”. Moreover, the “MST Binding Check” value in experiment [3] is recorded as “Positive”.
Turning to `CC(C)CCC[C@@H](C)[C@H]1CC[C@H]2[C@@H]3CCC4=CC(=NO)CC[C@]4(C)[C@H]3CC[C@]12C` [Olesoxime], the “Effect(s) on activity” value in experiment [1] was “Reduces conductance”. Besides, the “Tm shift in NanoDSF (direction / significance, in words)” value in experiment [2] was “negative Tm shift”. The “MST Binding Check” value is “Positive” in experiment [3] and “validated by binding check” in experiment [3] (listed as olesoxime).
With `C=C[C@H]1C[N@@]2CC[C@H]1C[C@@H]2[C@@H](O)c1ccnc2ccc(OC)cc12` [Quinidine], in experiment [2], the “Tm shift in NanoDSF (direction / significance, in words)” value is “negative Tm shift”. Moreover, the “MST Binding Check” value is “Positive” in experiment [3] and “validated by binding check” in experiment [3] (listed as quinidine).
`Cc1cc(O)c2c(c1)C(=O)c1cc(O)cc(O)c1C2=O` [Emodin] came in with a Kd in experiment [5] of 10 ± 5 µM. Further, in experiment [2], the “Tm shift in NanoDSF (direction / significance, in words)” value is recorded as “not been confirmed as VDAC1 ligands; also recorded: no significant changes in Tm”. In addition, the “MST Binding Check” value is reported as “Positive” in experiment [3] and “binding was shown” in experiment [3] (listed as emodin).
Regarding `CC(=O)Oc1ccccc1C(=O)O` [Aspirin], the “MST Binding Check” value is on record as “Positive” in experiment [3] and “validated by binding check” in experiment [3] (listed as aspirin).
For `CN(C)C(=N)N=C(N)N` [Metformin], the “Effect(s) on activity” value in experiment [1] (MST) is given as “Reduces conductance No binding observed by MST”. Also, the “Tm shift in NanoDSF (direction / significance, in words)” value in experiment [2] is recorded as “not been confirmed as VDAC1 ligands”. Also, the “MST Binding Check” value in experiment [3] is reported as “Positive”; in experiment [3] (listed as metformin), “validated by binding check”.
Regarding `O=C(O)c1ccccc1Nc1ccccc1` [DPC], in experiment [1] (MST), the “Effect(s) on activity” value is given as “Reduces conductance Prevents oligomerization”. For the same molecule, the “Tm shift in NanoDSF (direction / significance, in words)” value in experiment [2] was “negative Tm shift”. For the same molecule, the “MST Binding Check” value in experiment [3] is “validated by binding check; also recorded: Positive”. Besides, in experiment [6] (read-out: Published Kd), the Kd is 150 µM.
With `C=C(C)[C@@H]1CCC(C)=C[C@H]1c1c(O)cc(CCCCC)cc1O` [Cannabidiol], the Kd in experiment [5] is 6 ± 2 µM; in experiment [5] (setting [7]), below 10 µM; in experiment [6] (read-out: Published Kd, listed as cannabidiol), 11 µM; in experiment [6] (read-out: Published Kd), 11.2 µM. Moreover, the “Effect(s) on activity” value in experiment [1] (MST) is recorded as “Reduces conductance Increases mitochondrial Ca^2+”. In addition, in experiment [2], the “Tm shift in NanoDSF (direction / significance, in words)” value is “increase the Tm; also recorded: positive”. For the same molecule, the “MST Binding Check” value in experiment [3] is given as “Positive”.
Turning to `CC(C)c1cccc(C(C)C)c1O` [Propofol], the Kd in experiment [5] was above 650 µM. Also, the “Effect(s) on activity” value in experiment [1] is “Promotes closure when a negative voltage is applied No effects on open state conductance”. In addition, in experiment [2], the “Tm shift in NanoDSF (direction / significance, in words)” value is “increase the Tm”. Further, the “MST Binding Check” value in experiment [3] is listed as “Positive”.
